{
  "source": "ChEMBL document CHEMBL1150619",
  "about": "“Minor steroidal alkaloids from the marine sponge Corticium sp” (J Nat Prod, 2002)",
  "key": {"C6": {"test_system": "C6", "test": "Cytotoxicity against rat C6 cells assessed as cell viability after 24 hrs by MTT assay", "format": "functional, cell-based", "conditions": "C6, 24 h; call rule not given here"}, "[1]": {"test": "Cytotoxicity against mouse RAW264 cells assessed as cell viability after 24 hrs by MTT assay", "format": "functional, cell-based"}, "[2]": {"conditions": "Mus musculus, RAW264.7, 24 h, read-out: IC50"}},
  "data": [
    {"compound": "CC(C)C1CCNC1C[C@@H](C)[C@H]1CC[C@H]2C3=CC[C@H]4C[C@H](N)CC[C@]4(C)[C@H]3CC[C@]12C", "note": "(stereo partly drawn) [TETRAHYDROPLAKINAMINE A]", "values": [
      {"measurement": "IC50", "setting": "C6", "result": 1.4, "unit": "µg/mL"},
      {"measurement": "IC50", "setting": "[1]; raw264", "result": "Not Active"}
    ]},
    {"compound": "CC1=C(/C=C/[C@@H](C)[C@H]2CC[C@H]3C4=CC[C@H]5C(=O)[C@@H](N(C)C)CC[C@]5(C)[C@H]4CC[C@]23C)CCNC1", "note": "[PLAKINAMINE H]", "values": [
      {"measurement": "IC50", "setting": "C6", "result": 9, "unit": "µg/mL"},
      {"measurement": "IC50", "setting": "[1]; [2]", "result": 61, "unit": "µg/mL"}
    ]},
    {"compound": "CC(C)C1=CC(=O)N/C1=C\\[C@@H](C)[C@H]1CC[C@H]2C3=CC[C@H]4C[C@H](N)CC[C@]4(C)[C@H]3CC[C@]12C", "note": "[PLAKINAMINE G]", "values": [
      {"measurement": "IC50", "setting": "C6", "result": 6.8, "unit": "µg/mL"},
      {"measurement": "IC50", "setting": "[1]; raw264", "result": "Not Active"}
    ]},
    {"compound": "CC1=C(/C=C/[C@@H](C)[C@H]2CC[C@H]3C4=CC[C@H]5[C@H](O)[C@H](N)CC[C@]5(C)[C@H]4CC[C@]23C)CCN(C)C1", "note": "[4ALPHA-HYDROXYDEMETHYLPLAKINAMINE B]", "values": [
      {"measurement": "IC50", "setting": "C6", "result": 26.1, "unit": "µg/mL"},
      {"measurement": "IC50", "setting": "[1]; [2]", "result": 16.2, "unit": "µg/mL"}
    ]}
  ]
}
